US20260355169A1, “METHODS OF TREATING CANCERS USING ISOQUINOLINE OR 6-AZA-QUINOLINE DERIVATIVES” (Black Diamond Therapeutics, Inc., priority 2022, published 2026)

The compounds below were run on BaF3 BRAF-KIAA1549 fusion cells (assay: BaF3 BRAF-KIAA1549 fusion cell proliferation assay). Settings: Mus musculus, BaF3, 96 h, read-out: IC50, inhibition of cell growth, BaF3-BRAF:KIAA1549 Fusion.
Assay type: cell-based
Description: Retroviral Production: The BRAF-KIAA1549 fusion mutant was subcloned into pMXs-IRES-Blasticidin (RTV-016, Cell Biolabs, San Diego, CA). […]. Briefly, HEK 293T cells were plated in Poly-D-lysine coated 6-well plate (2.5×10^5 cells per well) and incubated overnight. The next day, retroviral plasmids (1 μg of BRAF-KIAA fusion mutant, 0.32 μg of pCMV-Gag-Pol and 0.165 μg pCMV-VSV-G) were mixed in 300 μL of Optimem (31985, Life Technologies). The mixture was incubated at room temperature for 5 minutes and then added to Optimem containing transfection reagent Lipofectamine (11668, Invitrogen) and incubated for 20 minutes. The mixture was then added dropwise to HEK 293T cells. The next day the medium was replaced with fresh culture medium and retrovirus was harvested at 24 hours.
Generation of BRAF-KIAA1549 fusion stable cell line: BaF3 cells were plated in V-bottom 96 well plate (COSTAR #3894) in 80 μL of RPMI/10% FBS and 0.01 ng/mL mouse IL-3, supplemented with 8 μg/mL polybrene (4×10^4 cells/well). Cells were transduced with 20 μL of BRAF-KIAA1549 fusion viral supernatant by centrifuging for 30 minutes at 1000 rpm. Cells were placed in a 37 °C incubator overnight. Next day 100 μL of RPMI/10% FBS and 0.01 ng/mL mouse IL-3 was added. After 24 hours, 100 μL of cells were transferred to a 24 well plate containing 900 μL of RPMI/10% FBS and 15 μg/mL Blasticidin. Contents of the 24 well plate were sampled for cell viability via CellTiterGlo (Promega) over a 2-week period.
Assay for cell proliferation: BaF3 BRAF-KIAA1549 fusion cells were resuspended at 1.5×10^5 c/mL in RPMI containing 10% Heat Inactivated FBS, 1% L-glutamine and dispensed in duplicate ([…]) into 384 well plates. To determine the effect of compound on cell proliferation, BaF3 BRAF-KIAA1549 fusion cells were incubated for 96 hours in the presence of vehicle control (DMSO) or compound at varying concentrations. Inhibition of cell growth was determined by luminescent quantification (Envision by Perkin Elmer) of intracellular ATP content using CellTiterGlo (Promega), according to the protocol provided by the manufacturer. To determine the IC50 values, the vehicle-treated cells were normalized as viable cells and analyzed using the CDD Vault, Collaborative Drug Discovery, Burlingame, CA (the Levenberg-Marquardt algorithm; Levenberg, K, […]; Marquardt, D., 1963).
Table A assigns each compound a code for potency in the BaF3 BRAF-KIAA1549 fusion cell proliferation assay: A, B, C, or D. According to the code, A represents an IC50 value<20 nM; B represents an IC50 value≥20 nM and <100 nM; C represents an IC50 value≥100 nM and <500 nM; and D represents an IC50 value≥500 nM.

Structure (SMILES) | IC50 [nM]
CNc1cc2ncc(-c3cc(NC(=O)c4cc(C(C)(C)F)ccn4)cnc3C)cc2cn1 [compound 65] | 20 to 100
CNc1cc2ncc(-c3cc(NC(=O)c4cc(C(F)F)c(F)cn4)cnc3C)cc2cn1 [compound 66] | 20 to 100
CNc1cc2ncc(-c3cc(NC(=O)c4cc(C(F)(F)F)c(OCCO)cn4)ccc3C)cc2cn1 [compound 71] | 20 to 100
CNc1cc2ncc(-c3cc(NC(=O)c4ccc(OC(F)F)cn4)cnc3C)cc2cn1 [compound 72] | > 500
CNc1cc2ncc(-c3cc(NC(=O)c4cc(C(F)(F)F)ccn4)nnc3C)cc2cn1 [compound 75] | 20 to 100
CNc1cc2ncc(-c3cc(NC(=O)c4cc(C(C)(C)C#N)ccn4)nnc3C)cc2cn1 [compound 77] | 20 to 100
Cc1ccc(NC(=O)c2cc(C(F)F)ccn2)cc1-c1cnc2cc(NCCC#N)ncc2c1 [compound 78] | 20 to 100
CNc1cc2nc(C#N)c(-c3cc(NC(=O)c4ccnc(C(F)(F)F)c4)ccc3C)cc2cn1 [compound 79] | < 20
Cc1ccc(NC(=O)c2ccnc(C3(F)CC3)c2)cc1-c1cnc2cc(N)ncc2c1 [compound 154] | < 20
CCNc1cc2ncc(-c3cc(NC(=O)c4cc(C(C)(C)C#N)ccn4)ccc3C)cc2cn1 [compound 173] | 20 to 100
Cc1ccc(NC(=O)c2cc(C(C)(C)C#N)ccn2)cc1-c1cnc2cc(N)ncc2c1 [compound 174] | 20 to 100
CCNc1cc2ncc(-c3cc(NC(=O)c4cc(C(C)(C)C#N)ccn4)cnc3C)cc2cn1 [compound 175] | 20 to 100
Cc1ncc(NC(=O)c2cc(C(C)(C)C#N)ccn2)cc1-c1cnc2cc(N)ncc2c1 [compound 176] | 20 to 100
CNc1cc2ncc(-c3cc(NC(=O)N(C)c4ccnc(C(F)F)c4)cnc3C)cc2cn1 [compound 190] | 100 to 500
CNc1cc2ncc(-c3cc(NC(=O)c4cccc(C5(C#N)CC5)c4)cnc3C)cc2cn1 [compound 191] | 20 to 100
CNc1ncc2cc(-c3cc(NC(=O)c4ccnc(C(C)(C)C#N)c4)cnc3C)cnc2c1C#N [compound 192] | 100 to 500
CNc1cc2ncc(-c3cc(NC(=O)c4cccc(C(C)(C)C#N)c4)ccc3C)cc2cn1 [compound 193] | < 20
CNc1cc2ncc(-c3cc(NC(=O)c4c[nH]c5ccccc45)cnc3C)cc2cn1 [compound 194] | 20 to 100
CNc1cc2ncc(-c3cc(C(=O)Nc4cccc(C(C)(C)C#N)c4)cnn3)cc2cn1 [compound 196] | > 500
CNc1cc2ncc(-c3c(C)ncc(NC(=O)c4cc(C(C)(C)C#N)ccn4)c3Cl)cc2cn1 [compound 197] | > 500

Structure (SMILES) | IC50 [nM]
CNc1cc2ncc(-c3cc(NC(=O)c4cccc(C(C)(F)F)c4)cnc3C)cc2cn1 [compound 200] | < 20
CNc1cc2ncc(-c3cc(NC(=O)c4cc(C(O)C5CC5)ccn4)cnc3C)cc2cn1 (stereo not drawn) [compound 201] | 20 to 100
CNc1cc2ncc(-c3cc(NC(=O)c4cc(C(O)C(C)C)ccn4)cnc3C)cc2cn1 (stereo not drawn) [compound 202] | 20 to 100
CNc1cc2ncc(-c3cc(NC(=O)c4cc(C(NC)C(F)(F)F)ccn4)ccc3C)cc2cn1 (stereo not drawn) [compound 203] | < 20
CNc1cc2ncc(-c3cc(NC(=O)c4cc(C(O)(O)C(F)(F)F)ccn4)cnc3C)cc2cn1 [compound 206] | 20 to 100
CNc1cc2ncc(-c3cc(NC(=O)c4cccc(C(O)C(F)(F)F)n4)cnc3C)cc2cn1 (stereo not drawn) [compound 210] | > 500
CNc1cc2ncc(-c3cc(NC(=O)c4nccc5c4OCCC5O)cnc3C)cc2cn1 (stereo not drawn) [compound 211] | > 500
CNc1cc2ncc(-c3cc(NC(=O)c4cccc5c4CCC5=O)cnc3C)cc2cn1 [compound 212] | > 500
CNc1cc2ncc(-c3cc(C(=O)Nc4cc(C(C)(C)C#N)ccn4)cnn3)cc2cn1 [compound 213] | > 500
CNc1cc2ncc(-c3cc(NC(=O)c4cccc5c4NC(=O)C5(C)C)ccc3C)cc2cn1 [compound 215] | 20 to 100
CNc1cc2ncc(-c3cc(NC(=O)c4ccnc(C(C)(C)C#N)c4)c(F)cc3C)cc2cn1 [compound 217] | 20 to 100
CNc1cc2ncc(-c3cc(NC(=O)c4cc(C(N(C)C)C(F)(F)F)ccn4)ccc3C)cc2cn1 (stereo not drawn) [compound 218] | 20 to 100
CNc1cc2ncc(-c3cc(NC(=O)c4cccc5c4CCC5O)cnc3C)cc2cn1 (stereo not drawn) [compound 219] | > 500
CNc1cc2ncc(-c3cc(NC(=O)c4ccnc(C5(F)CC5)c4)c(F)cc3C)cc2cn1 [compound 221] | 20 to 100
CNc1cc2ncc(-c3cc(NC(=O)c4ccnc(C(C)(C)F)c4)c(F)cc3C)cc2cn1 [compound 222] | 20 to 100
CNc1cc2ncc(-c3cc(NC(=O)c4cccc(C(C)(C)C#N)c4)c(F)cc3C)cc2cn1 [compound 223] | 20 to 100
CNc1cc2ncc(-c3cc(NC(=O)c4cc(C(F)(F)F)ccn4)c(F)cc3C)cc2cn1 [compound 224] | 100 to 500
CNc1cc2ncc(-c3cc(NC(=O)c4ccccc4NC(C)C(F)F)cnc3C)cc2cn1 (stereo not drawn) [compound 226] | 20 to 100
CCC(C)c1ccnc(C(=O)Nc2cnc(C)c(-c3cnc4cc(NC)ncc4c3)c2)c1 (stereo not drawn) [compound 227] | 20 to 100
CNc1cc2ncc(-c3cc(NC(=O)c4csc5c4CCC(C)C5)cnc3C)cc2cn1 (stereo not drawn) [compound 235] | 20 to 100

Next, values leading:

IC50 [nM] | Structure (SMILES)
20 to 100 | CNc1cc2ncc(-c3cc(NC(=O)[C@H](C)n4cnc(C(F)(F)F)n4)ccc3C)cc2cn1 [compound 68]
100 to 500 | CNc1cc2ncc(-c3cc(NC(=O)[C@@H](C)n4cnc(C(F)(F)F)n4)ccc3C)cc2cn1 [compound 69]
20 to 100 | CCNc1cc2ncc(-c3cc(NC(=O)c4ccnc(C5(F)CC5)c4)ccc3C)cc2cn1 [compound 153]
100 to 500 | CNc1cc2ncc(-c3cc(NC(=O)N(C)c4cc(C(F)F)ccn4)ccc3C)cc2cn1 [compound 189]
> 500 | CNc1cc2ncc(-c3cc(NC(=O)c4cnc5n4CCC(C)C5)ccc3C)cc2cn1 (stereo not drawn) [compound 195]
> 500 | CNc1cc2ncc(-c3cc(NC(=O)c4cccc5c4CCCC5=O)cnc3C)cc2cn1 [compound 198]
< 20 | CNc1cc2ncc(-c3cc(NC(=O)c4cnc5n4CC(C)CC5)ccc3C)cc2cn1 (stereo not drawn) [compound 204]
100 to 500 | CNc1cc2ncc(-c3cc(NC(=O)c4cnc5n4C(C)CCC5)ccc3C)cc2cn1 (stereo not drawn) [compound 205]
> 500 | CNc1cc2ncc(-c3cc(NC(=O)c4cccc5c4CCC[C@H]5O)cnc3C)cc2cn1 [compound 207]
> 500 | CNc1cc2ncc(-c3cc(NC(=O)c4cnc5n4CCCC5)cnc3C)cc2cn1 [compound 209]
20 to 100 | CNc1cc2ncc(-c3cc(NC(=O)c4cnc5n4CCCC5C)ccc3C)cc2cn1 (stereo not drawn) [compound 214]
100 to 500 | CNc1cc2ncc(-c3cc(NC(=O)c4cnc5n4CCCC5)ccc3C)cc2cn1 [compound 216]
20 to 100 | CNc1cc2ncc(-c3cc(NC(=O)c4cnc5n4CC(C(F)(F)F)CC5)ccc3C)cc2cn1 (stereo not drawn) [compound 220]
20 to 100 | CNc1cc2ncc(-c3cc(NC(=O)c4cnc5n4CC(C)CC5)cnc3C)cc2cn1 (stereo not drawn) [compound 225]
100 to 500 | CNc1cc2ncc(-c3cc(NC(=O)c4noc5c4CCCC5)ccc3C)cc2cn1 [compound 228]
20 to 100 | CNc1cc2ncc(-c3cc(NC(=O)c4n[nH]c5c4CCCC5)cnc3C)cc2cn1 [compound 229]
20 to 100 | CNc1cc2ncc(-c3cc(NC(=O)c4cnc5n4C[C@H](C)CC5)ccc3C)cc2cn1 [compound 230]
20 to 100 | CNc1cc2ncc(-c3cc(NC(=O)c4cnc5n4C[C@@H](C)CC5)ccc3C)cc2cn1 [compound 231]
100 to 500 | CNc1cc2ncc(-c3cc(NC(=O)c4cnc5n4CCCCC5)cnc3C)cc2cn1 [compound 232]
20 to 100 | CNc1cc2ncc(-c3cc(NC(=O)c4nn(C)c5c4CCCC5)cnc3C)cc2cn1 [compound 233]
20 to 100 | CNc1cc2ncc(-c3cc(NC(=O)c4csc5c4CCCC5)cnc3C)cc2cn1 [compound 234]
20 to 100 | CNc1cc2ncc(-c3cc(NC(=O)c4noc5c4C[C@@H](C)CC5)ccc3C)cc2cn1 [compound 236]
20 to 100 | CNc1cc2ncc(-c3cc(NC(=O)c4noc5c4C[C@H](C)CC5)ccc3C)cc2cn1 [compound 237]
